Measured values from the supplement of paper PMC8149375.

Columns and labels:
Settings in all cases: treatment: drug + dasatinib (fixed dose, not stated); 5 days
A498 [1] = test: minimum viability across doses, drug + dasatinib, relative to DMSO (fraction); higher = less growth inhibition
Protocol: (§1)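 Primary HTS combination arm: 8 RCC cell lines treated with 8 doses (up to 10 uM) of each library drug plus a fixed dose of dasatinib (dose not stated) for 5 days; viability read by CellTiter-Glo and normalised to DMSO. GI50 was fitted with XLfit, AUC is the area under the dose-response curve, and minimum viability is the lowest fraction of DMSO viability across doses.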

SN12C [2] = test: as above
Protocol: as §1

UO-31 [3] = test: as above
Protocol: as §1

CAKI-1 [4] = test: as above
Protocol: as §1

TK-10 [5] = test: as above
Protocol: as §1

ACHN [6] = test: as above
Protocol: as §1

769-P [7] = test: as above
Protocol: as §1

786-O [8] = test: as above
Protocol: as §1

A498 [9] = test: AUC of dose-response viability curve, drug + dasatinib, normalised to DMSO (arbitrary (AUC of normalised viability)); higher = less growth inhibition
Protocol: as §1

SN12C [10] = test: as above
Protocol: as §1

UO-31 [11] = test: as above
Protocol: as §1

CAKI-1 [12] = test: as above
Protocol: as §1

TK-10 [13] = test: as above
Protocol: as §1

ACHN [14] = test: as above
Protocol: as §1

769-P [15] = test: as above
Protocol: as §1

786-O [16] = test: as above
Protocol: as §1

A498 [17] = test: GI50 of drug in presence of dasatinib; higher = less potent
Protocol: as §1

SN12C [18] = test: as above
Protocol: as §1

UO-31 [19] = test: as above
Protocol: as §1

CAKI-1 [20] = test: as above
Protocol: as §1

TK-10 [21] = test: as above
Protocol: as §1

ACHN [22] = test: as above
Protocol: as §1

769-P [23] = test: as above
Protocol: as §1

786-O [24] = test: as above
Protocol: as §1

SMILES | minimum viability across doses (A498 [1]) | minimum viability across doses (SN12C [2]) | minimum viability across doses (UO-31 [3]) | minimum viability across doses (CAKI-1 [4]) | minimum viability across doses (TK-10 [5]) | minimum viability across doses (ACHN [6]) | minimum viability across doses (769-P [7]) | minimum viability across doses (786-O [8]) | AUC of dose-response viability curve (A498 [9]) | AUC of dose-response viability curve (SN12C [10]) | AUC of dose-response viability curve (UO-31 [11]) | AUC of dose-response viability curve (CAKI-1 [12]) | AUC of dose-response viability curve (TK-10 [13]) | AUC of dose-response viability curve (ACHN [14]) | AUC of dose-response viability curve (769-P [15]) | AUC of dose-response viability curve (786-O [16]) | GI50 of drug (A498 [17]) | GI50 of drug (SN12C [18]) | GI50 of drug (UO-31 [19]) | GI50 of drug (CAKI-1 [20]) | GI50 of drug (TK-10 [21]) | GI50 of drug (ACHN [22]) | GI50 of drug (769-P [23]) | GI50 of drug (786-O [24])
COC1=CC(c2cc3ccccc3[nH]2)=N/C1=C\c1[nH]c(C)cc1C.CS(=O)(=O)O [Obatoclax mesylate (GX15-070)] + Cc1nc(Nc2ncc(C(=O)Nc3c(C)cccc3Cl)s2)cc(N2CCN(CCO)CC2)n1 [dasatinib] | 0.0102 | 0.00176 | 0.00726 | 0.00534 | 0.151 | 0.014 | 0.0261 | 0.00545 | 1.76 | 1.38 | 2.23 | 1.4 | 1.58 | 0.992 | 1.46 | 0.949 | 277 nM | 153 nM | 305 nM | 122 nM | 86.6 nM | 15.4 nM | 145 nM | 31.6 nM
Cc1cc(Nc2cc(N3CCN(C)CC3)nc(/C=C/c3ccccc3)n2)n[nH]1.O=C(O)[C@H](O)[C@@H](O)C(=O)O [ENMD-2076] + Cc1nc(Nc2ncc(C(=O)Nc3c(C)cccc3Cl)s2)cc(N2CCN(CCO)CC2)n1 [dasatinib] | 0.247 | 0.0567 | 0.0131 | 0.00949 | 0.164 | 0.0393 | 0.131 | 0.0877 | 2.4 | 1.81 | 2.5 | 1.4 | 1.91 | 1.32 | 1.92 | 1.78 | 1270 nM | 400 nM | 886 nM | 194 nM | 396 nM | 77.4 nM | 1000 nM | 439 nM
COc1cc2c(N3CCN(C(=O)Nc4ccc(OC(C)C)cc4)CC3)ncnc2cc1OCCCN1CCCCC1 [Tandutinib (MLN518)] + Cc1nc(Nc2ncc(C(=O)Nc3c(C)cccc3Cl)s2)cc(N2CCN(CCO)CC2)n1 [dasatinib] | 0.705 | 0.644 | 0.527 | 0.384 | 0.647 | 0.387 | 0.555 | 0.523 | 2.96 | 2.45 | 3.35 | 2.35 | 2.83 | 2.15 | 2.45 | 2.67 | > 10000 nM | > 10000 nM | > 10000 nM | 4780 nM | > 10000 nM | 3270 nM | > 10000 nM | > 10000 nM
COc1ccc(-c2ccc3c(N4CCOC[C@@H]4C)nc(N4CCOC[C@@H]4C)nc3n2)cc1CO [AZD8055] + Cc1nc(Nc2ncc(C(=O)Nc3c(C)cccc3Cl)s2)cc(N2CCN(CCO)CC2)n1 [dasatinib] | 0.182 | 0.135 | 0.00778 | 0.0255 | 0.053 | 0.044 | 0.0691 | 0.018 | 1.68 | 1.3 | 1.29 | 0.988 | 1.21 | 0.585 | 1.22 | 0.846 | 100 nM | 39.8 nM | 65.2 nM | 24 nM | 36.9 nM | < 3 nM | 59.9 nM | 7.26 nM
COc1cc2nccc(Oc3ccc(NC(=O)Nc4ccc(F)cc4F)c(F)c3)c2cc1OC [Ki8751] + Cc1nc(Nc2ncc(C(=O)Nc3c(C)cccc3Cl)s2)cc(N2CCN(CCO)CC2)n1 [dasatinib] | 1.04 | 0.546 | 0.735 | 0.154 | 0.683 | 0.352 | 0.304 | 0.483 | 4.09 | 2.37 | 3.73 | 1.95 | 2.6 | 1.89 | 2.15 | 2.33 | > 10000 nM | > 10000 nM | > 10000 nM | 1410 nM | > 10000 nM | 1280 nM | 1090 nM | 8550 nM
N#CCNC(=O)c1ccc(-c2ccnc(Nc3ccc(N4CCOCC4)cc3)n2)cc1 [Cyt387] + Cc1nc(Nc2ncc(C(=O)Nc3c(C)cccc3Cl)s2)cc(N2CCN(CCO)CC2)n1 [dasatinib] | 0.897 | 0.271 | 0.00938 | 0.0305 | 0.0961 | 0.0607 | 0.125 | 0.0246 | 3.6 | 2.27 | 2.78 | 1.83 | 2.14 | 1.72 | 2.24 | 1.73 | > 10000 nM | 2910 nM | 2550 nM | 325 nM | 1630 nM | 796 nM | 2110 nM | 884 nM
COc1cc(Nc2ncc(F)c(Nc3ccc4c(n3)NC(=O)C(C)(C)O4)n2)cc(OC)c1OC.O=S(=O)(O)c1ccccc1 [R406] + Cc1nc(Nc2ncc(C(=O)Nc3c(C)cccc3Cl)s2)cc(N2CCN(CCO)CC2)n1 [dasatinib] | 0.675 | 0.235 | 0.0103 | 0.0338 | 0.347 | 0.0817 | 0.139 | 0.232 | 3.28 | 2.04 | 2.12 | 1.53 | 2.22 | 1.71 | 2.23 | 1.91 | > 10000 nM | 908 nM | 1570 nM | 240 nM | 1580 nM | 173 nM | 2200 nM | 724 nM
O=C(O)c1ccc(Nc2ncc3c(n2)-c2ccc(Cl)cc2C(c2c(F)cccc2F)=NC3)cc1 [MLN8054] + Cc1nc(Nc2ncc(C(=O)Nc3c(C)cccc3Cl)s2)cc(N2CCN(CCO)CC2)n1 [dasatinib] | 0.354 | 0.425 | 0.645 | 0.277 | 0.585 | 0.219 | 0.306 | 0.157 | 2.68 | 2.22 | 2.92 | 1.93 | 2.58 | 1.77 | 2.14 | 2.01 | 4230 nM | 3920 nM | > 10000 nM | 641 nM | > 10000 nM | 398 nM | 1190 nM | 641 nM
Cc1[nH]c(/C=C2/C(=O)Nc3ccc(S(=O)(=O)N(C)c4cccc(Cl)c4)cc32)c(C)c1C(=O)N1CCN(C)CC1 + Cc1nc(Nc2ncc(C(=O)Nc3c(C)cccc3Cl)s2)cc(N2CCN(CCO)CC2)n1 [dasatinib] | 0.605 | 0.443 | 0.448 | 0.173 | 0.719 | 0.209 | 0.366 | 0.279 | 3.28 | 2.43 | 3.25 | 2.23 | 2.82 | 1.62 | 2.35 | 2.29 | > 10000 nM | 6070 nM | 9290 nM | 3070 nM | > 10000 nM | 22 nM | 5760 nM | 3950 nM
COCC(=O)NC/C=C/c1ccc2ncnc(Nc3ccc(Oc4ccc(C)nc4)c(C)c3)c2c1 + Cc1nc(Nc2ncc(C(=O)Nc3c(C)cccc3Cl)s2)cc(N2CCN(CCO)CC2)n1 [dasatinib] | 0.925 | 0.632 | 0.653 | 0.492 | 0.406 | 0.386 | 0.253 | 0.479 | 3.67 | 2.48 | 3.68 | 2.26 | 2.41 | 1.88 | 2.18 | 2.46 | > 10000 nM | > 10000 nM | > 10000 nM | 6790 nM | 3970 nM | 3030 nM | 2130 nM | 9120 nM
CC(C)(C)c1nc(-c2cccc(NS(=O)(=O)c3c(F)cccc3F)c2F)c(-c2ccnc(N)n2)s1 + Cc1nc(Nc2ncc(C(=O)Nc3c(C)cccc3Cl)s2)cc(N2CCN(CCO)CC2)n1 [dasatinib] | 1.01 | 0.684 | 0.58 | 0.0739 | 0.3 | 0.113 | 0.55 | 0.184 | 4.08 | 2.61 | 3.99 | 1.48 | 2 | 1.51 | 2.36 | 1.49 | > 10000 nM | > 10000 nM | > 10000 nM | 121 nM | 563 nM | 134 nM | > 10000 nM | 30.8 nM
Cc1nc(NC(=O)N2CCC[C@H]2C(N)=O)sc1-c1ccnc(C(C)(C)C(F)(F)F)c1 [BYL719] + Cc1nc(Nc2ncc(C(=O)Nc3c(C)cccc3Cl)s2)cc(N2CCN(CCO)CC2)n1 [dasatinib] | 0.54 | 0.407 | 0.0931 | 0.162 | 0.305 | 0.242 | 0.393 | 0.114 | 3.24 | 2.23 | 3.72 | 2.14 | 2.15 | 1.45 | 2.29 | 1.56 | > 10000 nM | > 10000 nM | 5560 nM | 1720 nM | 2790 nM | 11.6 nM | 3680 nM | 69.8 nM
O=C1NC(=O)C(=Cc2ccc(-c3ccc(F)cc3)o2)S1 (stereo in doubt) + Cc1nc(Nc2ncc(C(=O)Nc3c(C)cccc3Cl)s2)cc(N2CCN(CCO)CC2)n1 [dasatinib] | 0.903 | 0.655 | 0.657 | 0.638 | 0.633 | 0.607 | 0.594 | 0.519 | 3.83 | 2.4 | 3.43 | 2.46 | 2.37 | 2.28 | 2.42 | 2.24 | > 10000 nM | > 10000 nM | > 10000 nM | > 10000 nM | > 10000 nM | > 10000 nM | > 10000 nM | > 10000 nM
